Data from ChEMBL document CHEMBL3763104, “Antibacterial and antifungal activities of 2,3-pyrrolidinedione derivatives against oral pathogens” (2016).

What was measured:
Candida albicans [1] = assay: Antimicrobial activity against Candida albicans ATCC 90028 biofilm at 0.008 % after 1 hr by MTT assay relative to control; format: functional
Streptococcus mutans [2] = assay: Antimicrobial activity against Streptococcus mutans ATCC 35668 biofilm at 1 % after 1 hr by MTT assay relative to control; format: functional
Streptococcus mutans [3] = assay: Antimicrobial activity against Streptococcus mutans ATCC 35668 biofilm at 0.2 % after 1 hr by MTT assay relative to control; format: functional
Streptococcus mutans [4] = assay: Antimicrobial activity against Streptococcus mutans ATCC 35668 biofilm at 0.008 % after 1 hr by MTT assay relative to control; format: functional
Streptococcus mutans [5] = assay: Antimicrobial activity against Streptococcus mutans ATCC 35668 biofilm at 0.04 % after 1 hr by MTT assay relative to control; format: functional
Candida albicans [6] = assay: Antimicrobial activity against Candida albicans ATCC 90028 biofilm at 0.2 % after 1 hr by MTT assay relative to control; format: functional
Candida albicans [7] = assay: Antimicrobial activity against Candida albicans ATCC 90028 biofilm at 1 % after 1 hr by MTT assay relative to control; format: functional
Candida albicans [8] = assay: Antimicrobial activity against Candida albicans ATCC 90028 biofilm at 0.004 % after 1 hr by MTT assay relative to control; format: functional
Candida albicans [9] = assay: Antimicrobial activity against Candida albicans ATCC 90028 biofilm after 1 hr by MTT assay; format: functional, organism-based

## CCOC(=O)C1=C(O[Si](C)(C)C(C)(C)C)C(=O)N(Cc2ccc(OC)cc2)C1
Candida albicans [1]
  inhibition (INH): 23.5%
Streptococcus mutans [2]
  inhibition (INH): 50.6%
Streptococcus mutans [3]
  inhibition (INH): 1.8%
Streptococcus mutans [4]
  inhibition (INH): 1.4%
Streptococcus mutans [5]
  inhibition (INH): 0.1%
Candida albicans [6]
  inhibition (INH): 12.2%
Candida albicans [7]
  inhibition (INH): 17%
Candida albicans [8]
  inhibition (INH): 11.8%

## CCOC(=O)C1=C(OCc2ccccc2)C(=O)N(C(=O)[C@@H](N)C(C)C)C1.O=C(O)C(F)(F)F
Candida albicans [1]
  inhibition (INH): 18.5%
Streptococcus mutans [2]
  inhibition (INH): 47.3%
Streptococcus mutans [3]
  inhibition (INH): 3.1%
Streptococcus mutans [4]
  inhibition (INH): 0.7%
Streptococcus mutans [5]
  inhibition (INH): 1.2%
Candida albicans [6]
  inhibition (INH): 11.9%
Candida albicans [7]
  inhibition (INH): 36.7%
Candida albicans [8]
  inhibition (INH): 12.3%

## CCCCCCCCCCC1=C(O[Si](C)(C)C(C)(C)C)C(=O)N(Cc2ccc(OC)cc2)C1
Candida albicans [1]
  inhibition (INH): 12.1%
Streptococcus mutans [2]
  inhibition (INH): 0%
Streptococcus mutans [3]
  inhibition (INH): 3.4%
Streptococcus mutans [4]
  inhibition (INH): 10.7%
Streptococcus mutans [5]
  inhibition (INH): 4.3%
Candida albicans [6]
  inhibition (INH): 1.9%
Candida albicans [7]
  inhibition (INH): 31.6%
Candida albicans [8]
  inhibition (INH): 9%

## CCOC(=O)C1=C(OCc2ccccc2)C(=O)N(Cc2ccc(OC)cc2)C1
Candida albicans [1]
  inhibition (INH): 6%
Streptococcus mutans [2]
  inhibition (INH): 0%
Streptococcus mutans [3]
  inhibition (INH): 2.7%
Candida albicans [9]
  inhibition: Dose-dependent effect
Streptococcus mutans [4]
  inhibition (INH): 1%
Streptococcus mutans [5]
  inhibition (INH): 5%
Candida albicans [6]
  inhibition (INH): 23.1%
Candida albicans [7]
  inhibition (INH): 32.3%
Candida albicans [8]
  inhibition (INH): 14.7%

## CCOC(=O)C1=C(OCc2ccccc2)C(=O)NC1
Candida albicans [1]
  inhibition (INH): 9.2%
Streptococcus mutans [2]
  inhibition (INH): 3.4%
Streptococcus mutans [3]
  inhibition (INH): 4.8%
Candida albicans [9]
  inhibition: Dose-dependent effect
Streptococcus mutans [4]
  inhibition (INH): 1.3%
Streptococcus mutans [5]
  inhibition (INH): 3%
Candida albicans [6]
  inhibition (INH): 27.9%
Candida albicans [7]
  inhibition (INH): 43.2%
Candida albicans [8]
  inhibition (INH): 23.2%

## CCOC(=O)C1=C(OC)C(=O)N(C(=O)C(NC(=O)OC(C)(C)C)C(C)C)C1 (stereo unspecified)
Candida albicans [1]
  inhibition (INH): 0%
Streptococcus mutans [2]
  inhibition (INH): 32.6%
Streptococcus mutans [3]
  inhibition (INH): 16.1%
Candida albicans [9]
  inhibition: Dose-dependent effect
Streptococcus mutans [4]
  inhibition (INH): 5%
Streptococcus mutans [5]
  inhibition (INH): 9.4%
Candida albicans [6]
  inhibition (INH): 15.7%
Candida albicans [7]
  inhibition (INH): 30.7%
Candida albicans [8]
  inhibition (INH): 7.8%

## CCCCCCCC/C=C/C1=C(OCc2ccccc2)C(=O)N(Cc2ccc(OC)cc2)C1
Candida albicans [1]
  inhibition (INH): 0.2%
Streptococcus mutans [2]
  inhibition (INH): 93.2%
Streptococcus mutans [3]
  inhibition (INH): 92.7%
Candida albicans [9]
  inhibition: Dose-dependent effect
Streptococcus mutans [4]
  inhibition (INH): 2.4%
Streptococcus mutans [5]
  inhibition (INH): 14.1%
Candida albicans [6]
  inhibition (INH): 34%
Candida albicans [7]
  inhibition (INH): 60.8%
Candida albicans [8]
  inhibition (INH): 24.5%

## N=C(NCCCCCCNC(=N)NC(=N)Nc1ccc(Cl)cc1)NC(=N)Nc1ccc(Cl)cc1 [CHLORHEXIDINE]
Streptococcus mutans [3]
  inhibition (INH): 93.6%
Candida albicans [6]
  inhibition (INH): 49.9%

## COc1ccc(CN2CC(CO)=C(O[Si](C)(C)C(C)(C)C)C2=O)cc1
Candida albicans [1]
  inhibition (INH): 4.5%
Streptococcus mutans [2]
  inhibition (INH): 19.1%
Streptococcus mutans [3]
  inhibition (INH): 13.3%
Streptococcus mutans [4]
  inhibition (INH): 11.4%
Streptococcus mutans [5]
  inhibition (INH): 15.4%
Candida albicans [6]
  inhibition (INH): 21.3%
Candida albicans [7]
  inhibition (INH): 1%
Candida albicans [8]
  inhibition (INH): 19.4%

## CCOC(=O)C1=C(O)C(=O)N(Cc2ccc(OC)cc2)C1
Candida albicans [1]
  inhibition (INH): 19.8%
Streptococcus mutans [2]
  inhibition (INH): 25.6%
Streptococcus mutans [3]
  inhibition (INH): 51.3%
Streptococcus mutans [4]
  inhibition (INH): 0%
Streptococcus mutans [5]
  inhibition (INH): 3.4%
Candida albicans [6]
  inhibition (INH): 10.7%
Candida albicans [7]
  inhibition (INH): 45.5%
Candida albicans [8]
  inhibition (INH): 17.2%

## CCOC(=O)C1=C(OCc2ccccc2)C(=O)N(C(=O)C(NC(=O)OC(C)(C)C)C(C)C)C1 (stereo unspecified)
Candida albicans [1]
  inhibition (INH): 10.1%
Streptococcus mutans [2]
  inhibition (INH): 89.5%
Streptococcus mutans [3]
  inhibition (INH): 48.6%
Candida albicans [9]
  inhibition: Dose-dependent effect
Streptococcus mutans [4]
  inhibition (INH): 23.1%
Streptococcus mutans [5]
  inhibition (INH): 28%
Candida albicans [6]
  inhibition (INH): 16.7%
Candida albicans [7]
  inhibition (INH): 50.7%
Candida albicans [8]
  inhibition (INH): 7.3%

## COc1ccc(CN2CC(CO)=C(OCc3ccccc3)C2=O)cc1
Candida albicans [1]
  inhibition (INH): 7.5%
Streptococcus mutans [2]
  inhibition (INH): 5%
Streptococcus mutans [3]
  inhibition (INH): 2.8%
Candida albicans [9]
  inhibition: Dose-dependent effect
Streptococcus mutans [4]
  inhibition (INH): 0%
Streptococcus mutans [5]
  inhibition (INH): 4.5%
Candida albicans [6]
  inhibition (INH): 20.9%
Candida albicans [7]
  inhibition (INH): 36.1%
Candida albicans [8]
  inhibition (INH): 6.3%
